# Results taken from EP0829478A2, “N-Benzylimidazolium and N-benzyltriazolium derivatives, their preparation and their use as antifungal and antimycotic agents” (F. HOFFMANN-LA ROCHE AG, priority 1996, dated 1998).
# Structures can show the parent of a compound that is named as a salt. Where two headings read alike, the source gives them in different places.
# Key:
# [1] = Conversion of the azolium compounds to ketoconazole / itraconazole on incubation in human plasma; format: in vitro ADME; settings: 10µg/ml, 37°C; for metabolised at 5 min / remaining at 5 min: incubation time 5 min
# Protocol: The compounds of formula I were incubated with human plasma at a concentration of 10µg/ml at 37°C for up to 120 min.
# [2] = system: Aspergillus fumigatus; experiment: Systemic aspergillosis model in rats, ED50; format: in vivo; settings: 336 h
# Excerpt: (§1) Male Fisher rats, strain F344/DuCrj, were employed for experimental infection models such as systemic candidiasis, systemic aspergillosis and pulmonary aspergillosis model. Immunocompetent 4 weeks old rats were used for systemic candidiasis or systemic aspergillosis which occurred her infection with Candida albicans conidia of 5x10^6/rat or with Aspergillus fumigatus conidia of 6x10^5/rat via tail vein. Otherwise for pulmonary aspergillosis model, rats had been immunosuppressed with cortisone acetate treatments prior to infection with 2x10^5/rat intratrachially. Treatments were given twice on the first day and once daily on following 4 days both for systemic and pulmonary aspergillosis (Ib.i.+4q.d.), for systemic candidiasis rats were treated at 0, 4, 24, and 48 h after infection (Ib.i.d.+2q.d.).
# [3] = system: Candida albicans; experiment: Systemic candidiasis model in rats, ED50; format: in vivo; settings: 336 h
# Excerpt: as §1
# [4] = system: Aspergillus fumigatus; experiment: Pulmonary aspergillosis model in immunosuppressed rats, ED50; format: in vivo; settings: 336 h
# Excerpt: as §1
# [5] = Water solubility (Table 1); format: physicochemical
# [6] = iv, read-out: Effective dose 50% (ED50) Systemic aspergillosis i.v., male Fisher rats F344/DuCrj, immunocompetent, i.v., twice on first day, once daily on following 4 days, determined on day 14 after infection
# [7] = po, read-out: Effective dose 50% (ED50) Systemic aspergillosis p.o., male Fisher rats F344/DuCrj, immunocompetent, p.o., twice on first day, once daily on following 4 days, determined on day 14 after infection
# [8] = iv, read-out: Effective dose 50% (ED50) Systemic candidiasis i.v., male Fisher rats F344/DuCrj, immunocompetent, i.v., treated at 0, 4, 24 and 48 h after infection, determined on day 14 after infection
# [9] = po, read-out: Effective dose 50% (ED50) Systemic candidiasis p.o., male Fisher rats F344/DuCrj, immunocompetent, p.o., treated at 0, 4, 24 and 48 h after infection, determined on day 14 after infection
# [10] = iv, read-out: Effective dose 50% (ED50) Pulmonay aspergillosis i.v., male Fisher rats F344/DuCrj immunosuppressed with cortisone acetate, i.v., twice on first day, once daily on following 4 days, determined on day 14 after infection
# [11] = po, read-out: Effective dose 50% (ED50) Pulmonay aspergillosis p.o., male Fisher rats F344/DuCrj immunosuppressed with cortisone acetate, p.o., twice on first day, once daily on following 4 days, determined on day 14 after infection
# [12] = solvent a = distilled water, read-out: solubility
# [13] = mcilvaine buffer, pH 8.02, aqueous buffer
# [14] = ketoconazole formed, read-out: Observed (%) KCZ
# [15] = remaining parent compound, read-out: Observed (%) Comp. I
compound,measurement,setting,value
CCC(C)n1ncn(-c2ccc(N3CCN(c4ccc(OCC5COC(Cn6c[n+](Cc7cc(C)c(OC(C)=O)c(C)c7)cn6)(c6ccc(Cl)cc6Cl)O5)cc4)CC3)cc2)c1=O (centres unmarked) [Example 1],metabolised at 1 h,"[1]; itraconazole formed, incubation time 60 min, read-out: Observed (%) ICZ",28%
same,remaining at 1 h,"[1]; remaining parent compound, incubation time 60 min, read-out: Observed (%) Comp. I",47%
"CNCC(=O)Oc1c(C)cc(C[n+]2cnn(C[C@](O)(c3ccc(F)cc3F)[C@@H](C)c3nc(-c4ccc(C#N)cc4)cs3)c2)cc1C [Example 23, 1-[(2R,3R)-3-[4-(4-Cyanophenyl)thiazol-2-yl]-2-(2,4-difluorophenyl)-2-hydroxybutyl]-4-[3,5-dimethyl-4-[(methylamino)acetoxy]benzyl]-1H-[1,2,4]triazol-4-ium bromide trifluoroacetic acid salt]",ED50,[2]; [6],17 µmol/kg
same,ED50,[2]; [7],19 µmol/kg
same,ED50,[3]; [8],4.6 µmol/kg
same,ED50,[3]; [9],4.7 µmol/kg
same,ED50,[4]; [10],8 µmol/kg
same,ED50,[4]; [11],17 µmol/kg
"CC(=O)Oc1c(Cl)cc(C[n+]2ccn(CC3(c4ccc(Cl)cc4Cl)OCC(COc4ccc(N5CCN(C(C)=O)CC5)cc4)O3)c2)cc1Cl (stereo not drawn) [Example 6, 1-(4-Acetoxy-3,5-dichloro-benzyl)-3-[(2R*,4S*)-[4-[4-(4-acetyl-piperazin-1-yl)-phenoxymethyl]-2-(2,4-dichloro-phenyl)-[1,3]dioxolan-2-ylmethyl]-3H-imidazol-1-ium bromide]",solubility,[5]; [12],6500 µg/mL
"Cc1cc(C[n+]2cnn(C[C@](O)(c3ccc(F)cc3F)[C@@H](C)c3nc(-c4ccc(C#N)cc4)cs3)c2)cc(C)c1OC(=O)[C@@H]1CCCN1 [Example 16, 1-[(2R,3R)-3-[4-(4-Cyanophenyl)-thiazol-2-yl]-2-(2,4-difluorophenyl)-2-hydroxybutyl]-4-[(S)-3,5-dimethyl-4-(pyrrolidine-2-carbonyloxy)-benzyl]-1H-[1,2,4]triazol-4-ium bromide trifluoroacetic acid salt]",ED50,[2]; [6],> 35 µmol/kg
same,ED50,[2]; [7],> 55 µmol/kg
same,ED50,[3]; [8],3.5 µmol/kg
same,ED50,[3]; [9],< 2.1 µmol/kg
same,ED50,[4]; [10],17 µmol/kg
same,ED50,[4]; [11],18 µmol/kg
"CCC(C)n1ncn(-c2ccc(N3CCN(c4ccc(OCC5COC(Cn6c[n+](Cc7cc(C)c(OC(=O)c8ccccc8)c(C)c7)cn6)(c6ccc(Cl)cc6Cl)O5)cc4)CC3)cc2)c1=O.[Br-] (centres unmarked) [Example 3, 4-(4-Benzoyloxy-3,5-dimethylbenzyl)-1-[4-(4-{4-[4-(1-(2-butyl)-5-oxo-1,5-dihydro-[1,2,4]triazol-4-yl)phenyl]piperazin-1-yl}phenoxymethyl)-2-(2,4-dichlorophenyl)-[1,3]dioxolan-2-ylmethyl]-1H-[1,2,4]triazol-4-ium bromide]",solubility,[5]; [13],400 µg/mL
"CO[C@H]1[C@@H](Cn2c[n+](Cc3cc(C)c(OC(C)=O)c(C)c3)cn2)[C@H](CCc2ccc(C)cc2)CCC1(C)C.[Br-] [Example 8, 4-(4-acetoxy-3,5-dimethyl-benzyl)-1-[(1R,2S,6R)-2-methoxy-3,3-dimethyl-6-(2-p-tolyl-ethyl)-cyclohexylmethyl]-1H-[1,2,4]triazol-4-ium bromide]",solubility,"[5]; distilled water, water",14000 µg/mL
"CC(=O)Oc1ccc(C[n+]2ccn(C[C@]3(c4ccc(Cl)cc4Cl)OC[C@H](COc4ccc(N5CCN(C(C)=O)CC5)cc4)O3)c2)cc1C (relative stereo) [Example 11, 1-(4-Acetoxy-3-methyl-benzyl)-3-[(2R*,4S*)-4-[4-(4-acetyl-piperazin-1-yl)-phenoxymethyl]-2-(2,4-dichloro-phenyl)-[1,3]dioxolan-2-ylmethyl]-3H-imidazol-1-ium bromide]",metabolised at 5 min,[1]; [14],100%
same,remaining at 5 min,[1]; [15],< 5%
"CCCCCC(=O)Oc1c(C)cc(C[n+]2cnn(CC3(c4ccc(Cl)cc4Cl)OCC(COc4ccc(N5CCN(c6ccc(-n7cnn(C(C)CC)c7=O)cc6)CC5)cc4)O3)c2)cc1C (racemic) [Example 13, dl-1-[4-(4-{4-[4-(1-sec-butyl-5-oxo-1,5-dihydro-[1,2,4]triazol-4-yl)-phenyl]-piperazin-1-yl}-phenoxymethyl)-2-(2,4-dichloro-phenyl)-[1,3]dioxolan-2-ylmethyl]-4-(4-hexanoyloxy-3,5-dimethyl-benzyl)-1H-[1,2,4]triazol-4-ium methanesulfonate]",solubility,"[5]; mcilvaine buffer, pH 8.02, aqueous buffer, solvent b = Mellvaine buffer(pH8.02), read-out: solubility",500 µg/mL
"CC(=O)N1CCN(c2ccc(OCC3COC(Cn4cc[n+](Cc5ccc(OC(=O)C(C)(C)C)cc5)c4)(c4ccc(Cl)cc4Cl)O3)cc2)CC1 (stereo not drawn) [Example 10, 3-[(2R*,4S*)-4-[4-(4-Acetylpiperazin-1-yl)phenoxymethyl]-2-(2,4-dichlorophenyl)-[1,3]dioxolan-2-ylmethyl]-1-[4-(2,2-dimethylpropionyloxy)benzyl]-3H-imidazol-1-ium bromides]",metabolised at 10 min,"[1]; ketoconazole formed, incubation time 10 min, read-out: Observed (%) KCZ",80%
same,remaining at 10 min,"[1]; remaining parent compound, incubation time 10 min, read-out: Observed (%) Comp. I",< 5%
"CC(=O)N1CCN(c2ccc(OC[C@H]3CO[C@](Cn4cc[n+](Cc5cc(C)c(OC(=O)C(C)C)c(C)c5)c4)(c4ccc(Cl)cc4Cl)O3)cc2)CC1.[Br-] (relative stereo) [Example 5, 3-[(2R*,4S*)-4-[4-(4-Acetyl-piperazin-1-yl)-phenoxymethyl]-2-(2,4-dichloro-phenyl)-[1,3]dioxolan-2-ylmethyl]-1-(4-isobutyryloxy-3,5-dimethyl-benzyl)-3H-imidazol-1-ium bromide]",solubility,"[5]; distilled water, water",> 1000 µg/mL
"OC(Cn1cncn1)(Cn1cncn1)c1ccc(F)cc1F [Fluconazole, reference compound]",ED50,"[3]; po, read-out: Effective dose 50% (ED50) Systemic candidiasis p.o.",> 2.9 µmol/kg
COc1cc(C[n+]2ccn(CC3(c4ccc(Cl)cc4Cl)OCC(COc4ccc(N5CCN(C(C)=O)CC5)cc4)O3)c2)ccc1OC(C)=O (centres unmarked) [Example 12],solubility,[5]; [12],5000 µg/mL
"CC(=O)Oc1c(C)cc(C[n+]2ccn(CC3(c4ccc(Cl)cc4Cl)OCC(COc4ccc(N5CCN(C(C)=O)CC5)cc4)O3)c2)cc1C (stereo not drawn) [Example 4, 1-(4-Acetoxy-3,5-dimethyl-benxyl)-3-[(2R*,4S*)-4-[4-(4-acetyl-piperazin-1-yl)-phenoxymethyl]-2-(2,4-dichloro-phenyl)-[1,3]dioxolan-2-ylmethyl]-3H-imidazol-1-ium bromide]",metabolised at 20 min,"[1]; ketoconazole formed, incubation time 20 min, read-out: Observed (%) KCZ",74%
same,remaining at 20 min,"[1]; remaining parent compound, incubation time 20 min, read-out: Observed (%) Comp. I",19%
"CC(=O)Oc1c(C)cc(C[n+]2ccn(CC(OCc3ccc(Cl)cc3Cl)c3ccc(Cl)cc3Cl)c2)cc1C (racemic) [Example 7, dl-1-(4-Acetoxy-3,5-dimethyl-benzyl)-3-[2-(2,4-dichloro-benzyloxy)-2-(2,4-dichloro-phenyl)-ethyl]-3H-imidazol-1-ium bromide]",solubility,[5]; [12],> 1000 µg/mL
"CC(=O)Oc1ccc(C[n+]2ccn(C[C@]3(c4ccc(Cl)cc4Cl)OC[C@H](COc4ccc(N5CCN(C(C)=O)CC5)cc4)O3)c2)cc1 (relative stereo) [Example 9, 1-(4-Acetoxybenzyl)-3-[(2R*,4S*)-4-[4-(4-acetylpiperazin-1-yl)phenoxymethyl]-2-(2,4-dichlorophenyl)-[1,3]dioxolan-2-ylmethyl]-3H-imidazol-1-ium bromide]",metabolised at 5 min,[1]; [14],89%
same,remaining at 5 min,[1]; [15],< 5%
"CCC(C)n1ncn(-c2ccc(N3CCN(c4ccc(OCC5COC(Cn6c[n+](Cc7cc(C)c(OC(=O)c8cccnc8)c(C)c7)cn6)(c6ccc(Cl)cc6Cl)O5)cc4)CC3)cc2)c1=O.[Br-] (centres unmarked) [Example 2, 4-(4-(Pyridine-3-carbonyloxy)-3,5-dimethylbenzyl)-1-[4-(4-{4-(4-(1-(2-butyl)-5-oxo-1,5-dihydro-[1,2,4]triazol-4-yl)phenyl]piperazin-1-yl}phenoxymethyl)-2-(2,4-dichlorophenyl)-[1,3]dioxolan-2-ylmethyl]-1H-[1,2,4]triazol-4-ium bromide]",solubility,[5]; [13],400 µg/mL
"CCC(C)n1ncn(-c2ccc(N3CCN(c4ccc(OCC5COC(Cn6cncn6)(c6ccc(Cl)cc6Cl)O5)cc4)CC3)cc2)c1=O (centres unmarked) [Itraconazole, reference compound]",ED50,"[2]; po, read-out: Effective dose 50% (ED50) Systemic aspergillosis p.o.",17 µmol/kg
